Results on eleven molecules are retold here after ChEMBL document CHEMBL1201862, “PubChem BioAssay data set” (2004).

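All cell lines were grown in 96-well plates and treated with compound for 48 hours. The concentration for 50% growth inhibition is given as GI50.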 Calls of active or inactive are those of the source. Cut-off read from the data, not from the text of the source: active = GI50 up to about 1.1 µM and inactive = higher. Some results are limits rather than exact numbers.

What all share (assay): NCI anticancer screen, dose series, 48 h
Experiment [1] relates to A498.
Experiment [2] relates to DLD-1.
In experiment [3] the test system is EKVX.
For experiment [4], the system named is HCT-116.
In experiment [5] the test system is HCT-15.
The subject of experiment [6] is K562.
Experiment [7] deals with KM12.
Experiment [8] has as its system LOX IMVI.
In experiment [9] the test system is M14.
The test system of experiment [10] is M19-MEL.
Experiment [11] concerns NCI-H226.
The subject of experiment [12] is NCI-H23.
Experiment [13] has as its system RPMI-8226.
Experiment [14] concerns RXF 393.
In experiment [15] the test system is SK-MEL-5.
Experiment [16] relates to SW-620.
In experiment [17] the test system is UACC-257.
Experiment [18] deals with Hs-578T.
Experiment [19] concerns NCI-H460.
Experiment [20] concerns NCI/ADR-RES.

Turning to `C=CCN(CC=C)CC(C(C)=O)C(c1ccccc1)c1c(O)c2ccccc2oc1=O` (centres undefined), the GI50 in [1] is > 100 µM (inactive); in experiment [2], > 100 µM (inactive); in [3], > 100 µM (inactive); in [4], > 100 µM (inactive); in experiment [5], above 100 µM; in experiment [6], > 100 µM (inactive). Moreover, the GI50 was 19 µM (inactive) in [7]; > 100 µM (inactive) in experiment [8]; > 100 µM (inactive) in experiment [9]; > 100 µM (inactive) in experiment [10]; 45.7 µM (inactive) in experiment [11]; > 100 µM (inactive) in [12]. Moreover, the GI50 in experiment [13], in experiment [14], in [15], in [16] and in [17] was > 100 µM (inactive) each time.
In the case of `O=C1C=C(Nc2ccccc2C(=O)CC(=O)C(=O)Nc2cccc(C(F)(F)F)c2)c2ccccc2C1=O`, the GI50 in [1] was > 100 µM (inactive); in experiment [2] it was 8.45 µM (inactive); in experiment [3] it was 37.8 µM (inactive); in experiment [4], 23 µM (inactive); in experiment [5], 19.5 µM; in experiment [18] it was 21 µM (inactive). The GI50 was 8.32 µM (inactive) in experiment [6]; 24 µM (inactive) in [7]; 6.04 µM (inactive) in [8]; 16.6 µM (inactive) in experiment [9]; 2.53 µM (inactive) in experiment [10]; 61.5 µM (inactive) in experiment [11]. Also, the GI50 was 13.6 µM (inactive) in experiment [12]; 27.7 µM (inactive) in experiment [19]; 13.5 µM (inactive) in experiment [20]; 17.6 µM (inactive) in experiment [13]; 20.8 µM (inactive) in experiment [14]; 15.8 µM (inactive) in [15]. Besides, the GI50 is 27.6 µM (inactive) in experiment [16] and 15.3 µM (inactive) in experiment [17].
With `COc1ccc(CN2C(=O)C(Cc3cc(OC)c(OC)c(C)c3OC)NC(=O)/C2=C/c2cc(OC)c(OC)c(C)c2OC)cc1` (centres undefined), the GI50 in experiment [1] was 49.4 µM (inactive); in experiment [2] it was 33 µM (inactive); in [3], 48.1 µM (inactive); in experiment [4], 26.4 µM (inactive); in experiment [6], 33 µM (inactive); in experiment [7], 38.8 µM (inactive). The GI50 in experiment [8] is 41.8 µM (inactive); in experiment [9], 32.1 µM (inactive); in [10], 19.3 µM (inactive); in experiment [11] it was 18.7 µM (inactive); in experiment [12], 43.1 µM (inactive); in [19], 9.98 µM (inactive). Further, the GI50 was 28.3 µM (inactive) in experiment [13]; 25.8 µM (inactive) in [14]; 18 µM (inactive) in experiment [15]; 33.9 µM (inactive) in experiment [16]; 37.5 µM (inactive) in experiment [17].
As to `O=C1c2cccc3cccc(c23)C(=O)N1CCN(CCO)CCO`, the GI50 is 17.3 µM (inactive) in [1]; 30.6 µM (inactive) in experiment [2]; 31.1 µM (inactive) in experiment [3]; 16.9 µM (inactive) in experiment [4]; 22.8 µM in [5]; 25.5 µM (inactive) in experiment [6]. In addition, the GI50 in [7] is 29.5 µM (inactive); in experiment [8], 18 µM (inactive); in experiment [9] it was 20 µM (inactive); in [10], 21.5 µM (inactive); in [11], 16 µM (inactive); in experiment [12], 25.4 µM (inactive). For the same molecule, the GI50 was 23.4 µM (inactive) in experiment [19]; 12.9 µM (inactive) in [13]; 20.9 µM (inactive) in experiment [14]; 17.2 µM (inactive) in [15]; 19.1 µM (inactive) in [16]; 22.5 µM (inactive) in [17].
On to `CNC(=O)OCc1nccc2c(C)c3[nH]c4ccc(OC)cc4c3cc12`, for which the GI50 is 6.7 µM (inactive) in experiment [1]; 2.99 µM (inactive) in experiment [2]; 16.7 µM (inactive) in experiment [3]; 1.95 µM (inactive) in experiment [4]; 3.03 µM in [5]; 2.7 µM (inactive) in experiment [6]. Also, the GI50 was 3.78 µM (inactive) in experiment [7]; 3.04 µM (inactive) in experiment [8]; 9.12 µM (inactive) in [9]; 5.61 µM (inactive) in experiment [10]; 1.73 µM (inactive) in experiment [11]; 4.74 µM (inactive) in experiment [12]. The GI50 is 1.08 µM (active) in [19]; 2.59 µM (inactive) in experiment [13]; 3.16 µM (inactive) in experiment [14]; 2.79 µM (inactive) in experiment [15]; 3.03 µM (inactive) in experiment [16]; 11.3 µM (inactive) in experiment [17].
For the molecule `N#Cc1c2c(c(Cl)n3c1nc1ccccc13)CCCC2`, the GI50 in experiment [1] is 11.4 µM (inactive); in [2], 10.6 µM (inactive); in experiment [3], 17.8 µM (inactive); in experiment [4] it was 2.75 µM (inactive); in experiment [5], 3.21 µM; in experiment [6] it was 2.5 µM (inactive). Besides, the GI50 is 1.9 µM (inactive) in [8]; 3.45 µM (inactive) in [9]; 3.61 µM (inactive) in [10]; 1.74 µM (inactive) in experiment [11]; 4.54 µM (inactive) in experiment [12]; 1.69 µM (inactive) in experiment [19]. For the same molecule, the GI50 in [13] is 1.7 µM (inactive); in experiment [14] it was 0.272 µM (active); in experiment [15] it was 0.566 µM (active); in experiment [16], 1.96 µM (inactive); in [17], 2.05 µM (inactive).
With `Cc1ccccc1NC(=O)/C(=N/NC(=O)CC#N)C1C(=O)N(c2ccccc2)N=C1N` (centres undefined), the GI50 in experiment [1] was > 100 µM (inactive); in [2], 79.6 µM (inactive); in experiment [3], > 100 µM (inactive); in experiment [4], > 100 µM (inactive); in experiment [5], above 100 µM; in experiment [6], 75.5 µM (inactive). Also, the GI50 in experiment [7], in [8], in experiment [9], in experiment [10], in experiment [11] and in [12] was > 100 µM (inactive) throughout. Further, the GI50 in [19] was > 100 µM (inactive); in experiment [13], 96.2 µM (inactive); in [14] it was > 100 µM (inactive); in experiment [15], > 100 µM (inactive); in experiment [16], > 100 µM (inactive); in experiment [17], > 100 µM (inactive).
`COC(=O)C1=CC2C=CC(C1C(=O)OC)C1C(C(=O)OC)=C(C(=O)OC)C(C(=O)OC)=C(C(=O)OC)C21OC` (centres undefined): the GI50 in [1] is > 100 µM (inactive); in [2], > 100 µM (inactive); in experiment [3], > 100 µM (inactive); in experiment [4], > 100 µM (inactive); in experiment [5], above 100 µM; in experiment [8], > 100 µM (inactive). Also, the GI50 in [9], in experiment [10], in experiment [11], in experiment [12], in experiment [19] and in experiment [13] was > 100 µM (inactive) throughout. For the same molecule, the GI50 in experiment [14], in [15], in experiment [16] and in experiment [17] was > 100 µM (inactive) each time.
With `O=S1(=O)N2CN3CN(C2)CN1C3`, the GI50 is 223 µM (inactive) in experiment [1]; 33.4 µM (inactive) in experiment [2]; 370 µM (inactive) in experiment [3]; 21.6 µM (inactive) in [4]; 23.2 µM in experiment [5]; > 31.6 µM (inactive) in [6]. Also, the GI50 is 93.8 µM (inactive) in experiment [7]; 36.8 µM (inactive) in experiment [8]; 36.2 µM (inactive) in experiment [9]; 62.1 µM (inactive) in experiment [10]; 28.1 µM (inactive) in experiment [11]; 20.5 µM (inactive) in experiment [12]. In addition, the GI50 was 51.5 µM (inactive) in experiment [19]; > 100 µM (inactive) in experiment [20]; 28.7 µM (inactive) in experiment [13]; 56.9 µM (inactive) in [14]; 32.4 µM (inactive) in experiment [15]; 23.7 µM (inactive) in experiment [16]. The GI50 in experiment [17] is 30.1 µM (inactive).
With `CCOC(=O)C1=C(C)NC(=S)NC1c1ccccc1` (centres undefined), the GI50 in experiment [1] was > 100 µM (inactive); in [2] it was > 57.9 µM (inactive); in experiment [3], > 100 µM (inactive); in experiment [4], > 59 µM (inactive); in experiment [5], above 41.3 µM; in [6], 50 µM (inactive). The GI50 in experiment [7] was > 100 µM (inactive); in experiment [8] it was > 63.7 µM (inactive); in experiment [9] it was > 100 µM (inactive); in [10], > 43.9 µM (inactive); in [11], > 100 µM (inactive); in experiment [12], > 100 µM (inactive). Besides, the GI50 in experiment [19] is > 59.3 µM (inactive); in [13] it was 33.9 µM (inactive); in experiment [14] it was > 66.2 µM (inactive); in experiment [15] it was > 83.9 µM (inactive); in experiment [17], > 100 µM (inactive).
Take `CC1=CP(=O)(OC(C)C)CC(C)=C1Cl` (centres undefined): the GI50 in experiment [1], in [2], in [3], in experiment [4], in [6] and in experiment [7] was > 100 µM (inactive) each time. Further, the GI50 was > 100 µM (inactive) in experiment [8]; 51.1 µM (inactive) in experiment [9]; > 100 µM (inactive) in experiment [10]; > 100 µM (inactive) in experiment [11]; > 100 µM (inactive) in experiment [12]; > 100 µM (inactive) in [19]. The GI50 in experiment [13] was 94.8 µM (inactive); in [14] it was > 100 µM (inactive); in [15] it was > 100 µM (inactive); in [16] it was 70.5 µM (inactive); in experiment [17], > 100 µM (inactive).
